Data taken from US9221811B2, “Chromone derivative having osteogenesis promoting effect” (Daiichi Sankyo Company, Limited, priority 2012, dated 2015).

Test system: female F344 rats
Test: Effect on bone density (oophorectomized rats, femur, DXA)
Type: in vivo, rat
Settings: 25 mg/kg orally once a day, six days a week, six weeks, Dunnett's test
Procedure: Eight to 12 week old female F344 rats were purchased from Charles River Laboratories Japan, Inc. and used in the following experiment.
This test was conducted at N=8. Rats were anesthetized by the intraperitoneal administration of 40 mg/kg of Somnopentyl (purchased from Kyoritsu Seiyaku Corporation), followed by oophorectomy.
From the day after surgery, a control group received a 0.5% methyl cellulose solution (purchased from Wako Pure Chemical Industries, Ltd., Cat. No. 133-14255) alone, whereas another group received a suspension of the test compound in this solution (0.5% methyl cellulose solution), for the test.
The administration was performed orally once a day, six days a week. Six weeks after administration, the rats were euthanized by removal of whole blood from the lower abdominal aorta under Somnopentyl anesthesia, and the left and right femur was excised.
After removal of soft tissues, the bone density of the femur thus excised was measured (apparatus: DXA apparatus DCS-600R manufactured by Aloka Co., Ltd.). The bone density was assessed in the whole femur as well as in three equal sections of the whole femur, namely the proximal end, the shaft, and the distal end.
The Dunnett's test was used in certification.

COCC(=O)N1CCC(c2oc3c(C)c(O)ccc3c(=O)c2C)CC1 [Example 11, 7-Hydroxy-2-[1-(methoxyacetyl)piperidin-4-yl]-3,8-dimethyl-4H-chromen-4-one]
bone density of the femur compared with the control group: significantly increased the bone density
